Data on two compounds can be found in paper PMC3086094 (Journal of molecular structure, 2011).

What is called IC50 is the concentration at which inhibition is half-maximal.

Data set [1] deals with HCT-116 (human colon carcinoma). The experiment in a line: MTS cytotoxicity assay, HCT-116. The class given is cell-based. A general note: Tetrazolium dyes change colour on reduction, which living cells bring about.
Data set [2] relates to CCD-18Co (human colon fibroblasts).
In data set [3] the test system is Caco-2 (human epithelial colorectal adenocarcinoma). The experiment in a line: cells.
For data set [4], the system named is CCD-18Co (human colon fibroblasts). Put plainly: cells.
The subject of data set [5] is calf thymus DNA (EB-DNA complex). The conditions noted are these: binding to DNA; cited from earlier work.

Each structure is given as a SMILES string.

With `COc1cc([C@@H]2c3cc4c(cc3[C@@H](O[C@@H]3O[C@@H]5CO[C@@H](C)O[C@H]5[C@H](O)[C@H]3O)[C@H]3COC(=O)[C@H]23)OCO4)cc(OC)c1O` [Etoposide], the half-inhibitory concentration (IC50) was 27.2 ± 1.2 µM in data set [1] (HCT-116, 24 h); 22.9 ± 1.5 µM in data set [1] (HCT-116, 48 h); 18.3 ± 1.4 µM in data set [1] (HCT-116, 72 h); 23.1 ± 1.2 µM in data set [3] (Caco-2, 24 h); 17.9 ± 1.3 µM in data set [3] (Caco-2, 48 h); 16.5 ± 2 µM in data set [3] (Caco-2, 72 h). Also, the half-inhibitory concentration (IC50) is 50.1 ± 1.5 µM in data set [4] (24 h), 45.2 ± 1.1 µM in data set [4] (48 h) and 42.2 ± 1 µM in data set [4] (72 h). The “cytotoxic selectivity, cancer cells versus normal cells CCD-18Co” value in data set [2] is listed as ~ 2.5 times.
As to `CC[n+]1c(-c2ccccc2)c2cc(N)ccc2c2ccc(N)cc21` [ethidium bromide], the “KEB, binding constant for ethidium bromide” value in data set [5] was 1.2e+06 M⁻¹.
